The values below come from ChEMBL document CHEMBL4376819, “The Rise of Molecules Able To Regenerate the Central Nervous System” (J Med Chem, 2020).

Usually half-life stands for the time needed for the level to fall by half in the phase considered. Higher therefore signals slow decline. As usually defined, the EC50 is the concentration at which the effect is half-maximal. Lower therefore signals greater potency.

A short description of series [1]: Half life in mouse plasma at 10 umol/L measured up to 4 hrs by mass spectrometry. The series is classed as ADME, cell-free.
Series [2] is described as follows: Induction of neurite growth in rat hippocampal neurons incubated for 48 hrs by high content analysis. In kind it is functional, cell-based. To be noted: Hippocampal neurone.
A short description of series [3]: Induction of CSPG-treated C57BL/6J mouse DRG neuron growth at 25 uM incubated for 24 hrs by Alexa Fluor 488 staining based assay relative to control. In kind it is functional.
The nature of series [4]: Induction of CSPG-treated human induced sensory neuron growth at 2 uM for 24 hrs by immunostaining method relative to control. The series is classed as functional.
The nature of series [5]: Induction of rat DRG neuron growth assessed as increase in total neurite length at 1 uM incubated for 24 hrs by […] staining based assay relative to control. In kind it is functional.
The test system of another series is Rattus norvegicus. The series can be described thus: Induction of optic nerve axon regeneration in Sprague-Dawley rat model of optic nerve crush injury assessed as increase in average length of the longest regenerating axons at 100 uM administered intravitreally on day 3,7 and 10 post injury and measured on day 13 post injury by Alexa Fluor 488/CTB-488 staining based confocal microscopic analysis relative to control. In kind it is functional.

In series [1], `COc1ccc(O)c(C(=O)c2ccc(C(=O)O[C@@H]3CCCNC[C@H]3NC(=O)c3ccncc3)cc2)c1F` returned a half-life at 10 µM of less than 1 min.

On to `O=S(=O)(c1cccc2c(I)cccc12)N1CCCNCC1`, for which the EC50 in series [2] was determined as 74 nM.

With `COc1ccc([C@@H]2Sc3ccccc3N(CCN(C)C)C(=O)[C@@H]2OC(C)=O)cc1` [DILTIAZEM], the results for the “fold change (FC)” value in series [3] and in series [4] were 2 and 1.5, respectively.

Take `Cc1ccc(-c2nc(NCCOCCOCCN)nc(N3CCN(c4ccccn4)CC3)n2)cc1`: the results for the Activity (in series [5]; in the series with Rattus norvegicus) were 50% and 56%, respectively.
